According to patent EP1972611A1, “ARYL DIHYDRO-NAPHTHALENE COMPOUNDS, THEIR PREPARATION AND THEIR USE AS AKT INHIBITOR FOR THE PREVENTION AND TREATMENT OF CANCER” (Central South University, priority 2005, dated 2007):
In brackets after ≈: the same amount, converted by molar mass. Marks after values point to notes of the source that are not given here.

Tests used:
COC1 cell = assay: Inhibition of COC1 cell growth measured by MTT method; format: cell-based; settings: Homo sapiens, COC1 cells, 48 hours; for IC50: Calcusyn program
Description: (§1) Cell lines of COC1, SMMC-7721, MCF-7and HT-29 were purchased from Chinese storage center for typical culture. Cells were cultured in RPMI1640 with 10% FCS at 37°C and 5% of CO2. Cells at log phase were harvested for the experiment.
(§2) Cells growth inhibition was measured with MTT method. Cells suspension of 1.0-1.2×10^5/ml were prepare and transferred to 96 well plate, 180µl per well. After further incubation for 2 hours, 20µl of various reagents were added to each well. The cells were back to incubator for 48 hours, and followed with addition of MTT of 20µl (5mg/ml)to each will. Additional incubation 6 hours later, the plate was centrifuged at 1000 rpm for 5 minutes. After aspirating supernatant, 100µl DMSO were added to each well and the optical density were measured at 490nm. The cells inhibition (IR) is calculated as : IR(%)=[1-A(treated)/A(control)]×100% , where is A is optical density. The IR was analyzed using Calcusyn program to determine the IC50 of each drug

MCF-7 cell = assay: Inhibition of MCF-7 cell growth (MTT method); format: cell-based; settings: Homo sapiens, MCF7, MCF-7 cells, 48 hours; for IC50: Calcusyn program
Description: as §1, §2

[1] = system: human ovarian tumor cells (CoC1); assay: In vivo tumor treatment model: nude mice inoculated with CoC1 tumor cells, tumor volume; set-up: species or system Balb/c-nu mice; settings: for Suppression rate of tumor growth (%): vs. control (NS); for Volume (mm^3): x±s, n=4
Description: Experimental Design: Human ovarian tumor cells (CoC1) were purchased from Chinese storage center for typical culture. Cells were cultured in RPMI1640 with 10% FCS. Sub-culture for every 2-3 days. Cells at log phase were harvested for the experiment. Approximately 2x10^6 CoC1 cells were injected subcutaneously into the back of the Balb/c-nu female nude mice at the age of 6-7 weeks. When tumors reached to ≥ 1000 mm^3 (about 30 days), mice bearing similar size tumors were divided into 2 groups: control (NS) and VB-2 treated group. Each group has 4 mice.
VB-2 was dissolved into DMSO and further diluted with normal saline. […] Treatment groups received drugs every other day until the termination of the experiment. All mice were sacrificed at day 20 after the first treatment. Tumor size was determined by three-dimensional measurements (mm) using a caliper. Only measurable tumors were used to calculate the mean tumor volume for each clone at each time point. Each point represents the mean of tumors ± SE. Statistical comparisons for tumor size in treated mice relative to control mice indicate: ** p < 0.01.

Akt = assay: Inhibition of Akt activation (phosphorylation) in breast cancer cells, Western analysis; format: cell-based, human; settings: MDA-MB-435 cells; for inhibition of Akt activation by suppressing its phosphorylation: 12 hours, 0, 0.5 µM, 4 µM, and 8 µM, Fig. 3; for levels of total non-phosphorylated Akt protein: Western analysis; for Akt phosphorylation: dose of 4 µM
Description: Experimental Design: MDA-MB-435 human breast cancer cells were cultured in the DMEM medium with 5% FCS. When cells reached approximately 50-60% confluence, cells were treated with VB-1 and VB-2 for 12 hours at the following doses: 0, 0.5 µM, 4 µM, and 8 µM. Control and treated cells are harvested and total protein was isolated, normalized, and 45 µg of total protein was subjected to Western analysis. The expression of phosphorylated Akt was determined by using a specific anti-phosphorylated Akt antibody and normalized for total Akt protein expression.

SMMC-7721 cell = assay: Inhibition of SMMC-7721 cell growth measured by MTT method; format: cell-based; settings: Homo sapiens, SMMC-7721 cells, 48 hours
Description: as §1, §2

HT-29 cell = assay: Inhibition of HT-29 cell growth (MTT method); format: cell-based; settings: Homo sapiens, HT-29 cells, 48 hours
Description: as §1, §2

[2] = system: MDA-MB-435 human breast cancer cells; assay: Growth inhibition of MDA-MB-435 cells measured with MTT method (example titled induction of apoptosis); format: cell-based; settings: for cells growth (percentage of the control group): p value less than 0.005
Description: Experimental design: MDA-MB-435 human breast cancer cells were cultured in the DMEM medium with 5% FCS. Cells were treated with VB-1 at 2 µM, 4 µM and 10 µM for 3 days. Cells were collected from control and treated groups and measured with MTT method.

Compound	IC50 (MCF-7 cell) [µg/mL]	inhibition at 0.5 µg/mL (COC1 cell) [%]	inhibition at 5 µg/mL (COC1 cell) [%]	inhibition at 50 µg/mL (COC1 cell) [%]	IC50 (COC1 cell) [µg/mL]	inhibition at 0.1 µg/mL (MCF-7 cell) [%]	inhibition at 0.3 µg/mL (MCF-7 cell) [%]	inhibition at 1 µg/mL (MCF-7 cell) [%]	inhibition at 3 µg/mL (MCF-7 cell) [%]	inhibition at 10 µg/mL (MCF-7 cell) [%]	further results
COc1cc2c(cc1O)[C@H](c1ccc(O[C@@H]3O[C@H](C(=O)O)[C@@H](O)[C@H](O)[C@H]3O)c(OC)c1)[C@@H](CO)C(C=O)=C2 [VB-5, 6-hydroxy-3-hydroxymethyl-4-(3-methoxyphenyl)-7-methoxy-3,4-dihydro-2-naphthaldehyde-4'-O-β-D-glucopyranosiduronic acid]	471 (≈ 885 µM)	14.3	28.7	35.2	371 (≈ 697 µM)	13.6	22	23.2	13.6	30.4	–
COc1cc([C@H]2c3cc(OC)c(OC)cc3C=C(C=O)[C@@H]2CO)ccc1O [VB-7, 6,7-dimethoxy-4-(4-hydroxy-3-methoxyphenyl)-3-hydroxymethyl-3,4-dihydro (3R,4S) -2-naphthaldehyde]	–	14.3	27.6	50	53.2 (≈ 144 µM)	–	–	–	–	–	–
COc1cc([C@H]2c3cc(O)c(OC)cc3C=C(C=O)[C@@H]2CO[C@@H]2O[C@H](CO)[C@@H](O)[C@H](O)[C@H]2O)ccc1O [VB-3, 6-hydroxy-4-(4-hydroxy-3-methoxyphenyl)-3-glucosyloxymethyl-7-methoxy-3,4-dihydro-(3R, 4S)-2-naphthaldehyde]	9260 (≈ 17900 µM)	–	–	–	–	10.6	11.3	14	18.5	13.8	–
COc1cc([C@H]2c3cc(O)c(OC)cc3C=C(CO)[C@@H]2CO)ccc1O [VB-4, 6-hydroxy-7-methoxy-4-(4-hydroxy-3-methoxyphenyl)-2,3-dihydroxymethyl-3,4-dihydro(3R, 4S)-2-hydroynaphthalene]	–	38.8	40.2	40.6	–	19.7	15.6	12.3	13.2	24	–

Second part, led by results:

IC50 (MCF-7 cell) [µg/mL]	Compound	inhibition at 0.5 µg/mL (COC1 cell) [%]	inhibition at 5 µg/mL (COC1 cell) [%]	inhibition at 50 µg/mL (COC1 cell) [%]	IC50 (COC1 cell) [µg/mL]	inhibition at 0.1 µg/mL (MCF-7 cell) [%]	inhibition at 0.3 µg/mL (MCF-7 cell) [%]	inhibition at 1 µg/mL (MCF-7 cell) [%]	inhibition at 3 µg/mL (MCF-7 cell) [%]	inhibition at 10 µg/mL (MCF-7 cell) [%]	further results
226 (≈ 635 µM)	COc1cc([C@H]2c3c(ccc(O)c3OC)C=C(C=O)[C@@H]2CO)ccc1O [VB-2, 6-hydroxy-4-(4-hydroxy-3-methoxyphenyl)-3-hydroxymethyl-5-methoxy-3,4-dlhydro(3R, 4S)-2-naphthaldehyde]	39.9	34.1	39.5	–	10.6	15.8	17.6	26.4	28.7	Suppression rate of tumor growth (%) ([1]; day 5, dosage 5 mg/kg, i.p. every other day): 7.8%; Suppression rate of tumor growth (%) ([1]; day 10, dosage 5 mg/kg, i.p. every other day): 66.5%; Suppression rate of tumor growth (%) ([1]; day 15, dosage 5 mg/kg, i.p. every other day): 64.5%; Suppression rate of tumor growth (%) ([1]; day 20, dosage 5 mg/kg, i.p. every other day): 55.7%; Volume (mm^3) ([1]; initial tumor volume before treatment, dosage 5 mg/kg): 1543±1466 mm^3; Volume (mm^3) ([1]; tumor volume at day 5, dosage 5 mg/kg, i.p. every other day): 2542±1718 mm^3; Volume (mm^3) ([1]; tumor volume at day 10, dosage 5 mg/kg, i.p. every other day): 2131±1207* mm^3; Volume (mm^3) ([1]; tumor volume at day 15, dosage 5 mg/kg, i.p. every other day): 3600±1755* mm^3; Volume (mm^3) ([1]; tumor volume at day 20, dosage 5 mg/kg, i.p. every other day): 4495±2087** mm^3; inhibition of Akt activation by suppressing its phosphorylation (Akt): dose-dependent inhibition; levels of total non-phosphorylated Akt protein (Akt; 12 hours): no effects; Akt phosphorylation (Akt; 12 hours): significantly block
11.2 (≈ 29 µM)	COc1ccc(C2c3cc(OC)c(OC)cc3C=C(C=O)C2CO)cc1OC (centres unmarked) [VB-6, 6-methoxy-4-(4-methoxy-3-methoxyphenyl)-3-hydroxymethyl-7-methoxy-3,4dihydro-2-naphthaldehyde]	37	45.6	57.1	11.1 (≈ 28.8 µM)	10.9	19.9	22.8	41.2	46.4	–
58 (≈ 163 µM)	COc1cc([C@H]2c3cc(O)c(OC)cc3C=C(C=O)[C@@H]2CO)ccc1O [VB-1, 6-hydroxy-4-(4-hydroxy-3-methoxyphenyl)-3-hydroxymethyl-7-methoxy-3,4-dihydro-(3R, 4S)-2-naphthaldehyde]	42.7	–	–	0.63 (≈ 1.77 µM)	6.4	9.1	12.7	13.8	41.1	inhibition at 0.4 µg/mL (COC1 cell; 0.4 µg/ml): 27.1%; inhibition at 0.6 µg/mL (COC1 cell; 0.6 µg/ml): 48.1%; inhibition at 0.8 µg/mL (COC1 cell; 0.8 µg/ml): 65.9%; inhibition at 1 µg/mL (COC1 cell; 1.0 µg/ml): 66.9%; inhibition at 1 µg/mL (SMMC-7721 cell; 1.00 µg/ml): 20.1%; inhibition at 10 µg/mL (SMMC-7721 cell; 10.00 µg/ml): 22.3%; inhibition at 1 µg/mL (HT-29 cell; 1.00 µg/ml): 22.1%; inhibition at 10 µg/mL (HT-29 cell; 10.00 µg/ml): 32.3%; inhibition of Akt activation by suppressing its phosphorylation (Akt): dose-dependent inhibition; levels of total non-phosphorylated Akt protein (Akt; 12 hours): no effects; Akt phosphorylation (Akt; 12 hours): significantly block; Akt activation (Akt; 12 hours, dose of 8 µM): completely blocks; cell inhibition ([2]; 2 µM, 4 µM and 10 µM for 3 days, Fig 4): dose dependent cell inhibition; cells growth (percentage of the control group) ([2]; 4 µM, 3 days): significantly less than the control group; cells growth (percentage of the control group) ([2]; 8 µM, 3 days): significantly less than the control group; inhibition at 10 µM ([2]; Homo sapiens, 72 h, 10 µM, 3 days): ~50%
